≈ marks a conversion by molar mass, not a printed value.
Assays:
L929 [1] = assay: Cytotoxicity against mouse L929 cells assessed as decline in cell survival at 12.5 to 50 ug/ml after 24 hrs by spectrophotometric analysis; format: cell-based; settings: l929, 24 h
Candida albicans [2] = assay: Anticandidal activity against amphotericin-B resistant Candida albicans after 24 to 48 hrs by broth microdilution technique; format: functional
Sporothrix schenckii [3] = assay: Antifungal activity against Sporothrix schenckii after 72 to 96 hrs by broth microdilution technique; format: functional
Candida albicans [4] = assay: Anticandidal activity against Candida albicans ATCC10231 after 24 to 48 hrs by broth microdilution technique; format: functional
Aspergillus fumigatus = assay: Antifungal activity against Aspergillus fumigatus after 72 to 96 hrs by broth microdilution technique; format: functional
Candida albicans [5] = assay: Anticandidal activity against Candida albicans CDRI after 24 to 48 hrs by broth microdilution technique; format: functional
[6] = system: Trichophyton mentagrophytes; assay: Antifungal activity against Trichophyton mentagrophytes after 72 to 96 hrs by broth microdilution technique; format: functional
Candida parapsilosis = assay: Antifungal activity against Candida parapsilosis ATCC22019 after 24 to 48 hrs by broth microdilution technique; format: functional; settings: Lodderomyces parapsilosis
Candida albicans [7] = assay: Anticandidal activity against Candida albicans ATCC14053 after 24 to 48 hrs by broth microdilution technique; format: functional
Candida albicans [8] = assay: Anticandidal activity against Candida albicans MTCC183 after 24 to 48 hrs by broth microdilution technique; format: functional
Candida albicans [9] = assay: Antifungal activity against Candida albicans after 24 to 48 hrs by broth microdilution technique; format: functional
Sporothrix schenckii [10] = assay: Ratio of fluconazole MIC to compound MIC against Sporothrix schenckii after 72 to 96 hrs by broth microdilution technique; format: functional
Sporothrix schenckii [11] = assay: Ratio of clotrimazole MIC to compound MIC against Sporothrix schenckii after 72 to 96 hrs by broth microdilution technique; format: functional
Candida albicans [12] = assay: Anticandidal activity against Candida albicans ATCC-MYA 2950 after 24 to 48 hrs by broth microdilution technique; format: functional
Cryptococcus neoformans = assay: Antifungal activity against Cryptococcus neoformans after 24 to 48 hrs by broth microdilution technique; format: functional
L929 [13] = assay: Cytotoxicity against mouse L929 cells assessed as morphological changes up to 3.12 ug/ml after 24 hrs by giemsa staining based phase contrast microscopy; format: cell-based; settings: l929, 24 h
Candida albicans [14] = assay: Anticandidal activity against Candida albicans isolated from patient after 24 to 48 hrs by broth microdilution technique; format: functional
Candida albicans [15] = assay: Anticandidal activity against Candida albicans ATCC750 after 24 to 48 hrs by broth microdilution technique; format: functional
Candida albicans [16] = assay: Ratio of fluconazole MIC to compound MIC against amphotericin-B resistant Candida albicans after 24 to 48 hrs by broth microdilution technique; format: functional

Row | SMILES | Activity (L929 [1]) | MIC (Candida albicans [2]) [µg/mL] | MIC (Sporothrix schenckii [3]) [µg/mL] | MIC (Candida albicans [4]) [µg/mL] | MIC (Aspergillus fumigatus) [µg/mL] | MIC (Candida albicans [5]) [µg/mL] | MIC [6] [µg/mL] | MIC (Candida parapsilosis) [µg/mL] | MIC (Candida albicans [7]) [µg/mL] | MIC (Candida albicans [8]) [µg/mL] | MIC (Candida albicans [9]) [µg/mL] | Ratio (Sporothrix schenckii [10]) | Ratio (Sporothrix schenckii [11]) | MIC (Candida albicans [12]) [µg/mL] | MIC (Cryptococcus neoformans) [µg/mL] | Activity (L929 [13]) | MIC (Candida albicans [14]) [µg/mL] | MIC (Candida albicans [15]) [µg/mL] | Ratio (Candida albicans [16])
1 | CCCSC(=S)NCc1ccncc1 | Toxic | 3.12 (≈ 13.8 µM) | 0.39 (≈ 1.72 µM) | 6.25 (≈ 27.6 µM) | 50 (≈ 221 µM) | 6.25 (≈ 27.6 µM) | 3.12 (≈ 13.8 µM) | 12.5 (≈ 55.2 µM) | 6.25 (≈ 27.6 µM) | 1.56 (≈ 6.89 µM) | 6.25 (≈ 27.6 µM) | 12 | 12 | 12.5 (≈ 55.2 µM) | 12.5 (≈ 55.2 µM) | Non-toxic | 12.5 (≈ 55.2 µM) | 12.5 (≈ 55.2 µM) | 2
2 | C=CCSC(=S)NCc1ccncc1 | Toxic | 6.25 (≈ 27.9 µM) | 0.39 (≈ 1.74 µM) | 1.56 (≈ 6.95 µM) | 25 (≈ 111 µM) | 1.56 (≈ 6.95 µM) | 3.12 (≈ 13.9 µM) | 1.56 (≈ 6.95 µM) | 0.78 (≈ 3.48 µM) | 0.78 (≈ 3.48 µM) | 1.56 (≈ 6.95 µM) | 12 | 12 | 1.56 (≈ 6.95 µM) | 3.12 (≈ 13.9 µM) | Non-toxic | 1.56 (≈ 6.95 µM) | 3.12 (≈ 13.9 µM) | 1
3 | CCSC(=S)NCc1ccncc1 | Toxic | 1.56 (≈ 7.35 µM) | 1.56 (≈ 7.35 µM) | 6.25 (≈ 29.4 µM) | 50 (≈ 235 µM) | 6.25 (≈ 29.4 µM) | 3.12 (≈ 14.7 µM) | 3.12 (≈ 14.7 µM) | 3.12 (≈ 14.7 µM) | 1.56 (≈ 7.35 µM) | 3.12 (≈ 14.7 µM) | – | – | 12.5 (≈ 58.9 µM) | 3.12 (≈ 14.7 µM) | Non-toxic | 12.5 (≈ 58.9 µM) | 12.5 (≈ 58.9 µM) | 5
4 | O=C1/C(=C/c2ccncc2)SC(=S)N1Cc1ccncc1 | Toxic | 3.12 (≈ 9.96 µM) | 3.12 (≈ 9.96 µM) | 1.56 (≈ 4.98 µM) | 25 (≈ 79.8 µM) | 3.12 (≈ 9.96 µM) | 3.12 (≈ 9.96 µM) | 1.56 (≈ 4.98 µM) | 6.25 (≈ 19.9 µM) | 0.78 (≈ 2.49 µM) | 1.56 (≈ 4.98 µM) | – | – | 1.56 (≈ 4.98 µM) | 1.56 (≈ 4.98 µM) | Non-toxic | 3.12 (≈ 9.96 µM) | 6.25 (≈ 19.9 µM) | 2
5 | O=C1/C(=C/c2ccc(F)cc2)SC(=S)N1Cc1ccncc1 | Toxic | – | 0.39 (≈ 1.18 µM) | – | > 50 | – | 3.12 (≈ 9.44 µM) | 25 (≈ 75.7 µM) | – | – | 12.5 (≈ 37.8 µM) | 12 | 12 | – | 25 (≈ 75.7 µM) | Non-toxic | – | – | –
